Assay results published in article PMC6906431, “Selective small molecule PARG inhibitor causes replication fork stalling and cancer cell death” (Nature Communications, 2019).

Columns and labels:
[1] = target: T1, Human PARG (Homo sapiens, UniProt Q86W56); assay: Gel-based PARG activity assay; assay type: biochemical
T1 construct: The human PARG (hPARG) catalytic domain (residues 389–976) was cloned in pET28a (Novagen); His-tag (N); made in house; host or cells: E. coli Rosetta
Protocol: PARP1C (2 μM) is enzymatically auto-modified in a reaction containing the PARP1 DBD (2 μM), a 24 mer nicked DNA oligo (2 μM), and NAD^+ (300 μM) for 1 h at 37 °C, as described previously. Human PARG^389–976 (1 nM) was pre-incubated with compounds for 1 h at room temperature. The reaction was initiated by the addition of PARylated PARP1 (final concentration of 500 nM) and quenched after 30 min incubation at room temperature by adding SDS-PAGE sample buffer. The gel was visualized by sypro-ruby staining[18] and the retained PARylated PARP1C species were quantified using ImageJ[59]. PARylated PARP1C that migrates slower than unmodified PARP1C was quantified. […] The IC50 values were determined by fitting the dose-response data for each compound to a four-parameter logistic equation using SigmaPlot (Systat Software Inc.).
To test the specificity of JA2131, human PARG^389–976 (1 nM) was pre-incubated with JA2131 (5, 10, and 20 μM) in the presence and absence of 0.1% Triton-X 100 or 0.1 mg/ml BSA for 1 h at room temperature. The reaction was initiated, quenched, visualized, and quantified as described above. […]
PARG activity assay. […]
PARP1 (500 nM). The reaction was quenched after a 30 -minu te in cu ba tion a t roo m te mpe ra tu re by adding SDS-PA GE sa mp le bu f fe r. PARylated PARP1C runs as a smear on SDS -PAGE that is reduced to a single band by PARG treatment. […]
2). (b) Qu an t if ica t ion o f the dose-response PARG inhibition by JA2 -3 using the gel-based PARG activity assay. hPARG (1 nM) was preincubated with increasing concentrations (0.032 – 1 µM) of JA2-3 f o r 1 hour at room temperature before PARylated PARP1C (500 nM) was added. The reaction was quenched after a 30-minu te incubation at room temperature. PARylated PARP1C migrates slower than unmodified PARP1C and was quantified using ImageJ. […] The rate of the PARG-dependent signal loss in the TR-FRET PAR turnover assay is not equivalent to the steady-state rate of PAR turnover, because the TR-FRET assay can’t detect signal loss until the length of PAR chains become shorter than 7 ADP-ribose units. Therefore, we used the gel-based PARG activity assay to accurately determine the IC50 values throughout the manuscript .

[2] = Sulforhodamine B (SRB) cytotoxicity assay; details: human, PC3 cells, Viability; for viability at 72 h, 1.95 µM: log [concentration] μM 0.291; for viability at 72 h, 3.9 µM: log [concentration] μM 0.592; for viability at 72 h, 7.8 µM: log [concentration] μM 0.893; for viability at 72 h, 15.6 µM: log [concentration] μM 1.194; for viability at 72 h, 31.3 µM: log [concentration] μM 1.495; for viability at 72 h, 62.5 µM: log [concentration] μM 1.796; for viability at 72 h, 125 µM: log [concentration] μM 2.097; for viability at 72 h, 250 µM: log [concentration] μM 2.398; for viability at 72 h, 500 µM: log [concentration] μM 2.699; for viability at 72 h, 0.98 µM: log [concentration] μM -0.01; for viability at 72 h, 0.49 µM: log [concentration] μM -0.312; for viability at 72 h, 0.244 µM: log [concentration] μM -0.613
[3] = system: PC3 cells; assay: Sulforhodamine B (SRB) cytotoxicity assay; details: Homo sapiens, PC-3, 72 h

T1 sequence (Q86W56 389-976): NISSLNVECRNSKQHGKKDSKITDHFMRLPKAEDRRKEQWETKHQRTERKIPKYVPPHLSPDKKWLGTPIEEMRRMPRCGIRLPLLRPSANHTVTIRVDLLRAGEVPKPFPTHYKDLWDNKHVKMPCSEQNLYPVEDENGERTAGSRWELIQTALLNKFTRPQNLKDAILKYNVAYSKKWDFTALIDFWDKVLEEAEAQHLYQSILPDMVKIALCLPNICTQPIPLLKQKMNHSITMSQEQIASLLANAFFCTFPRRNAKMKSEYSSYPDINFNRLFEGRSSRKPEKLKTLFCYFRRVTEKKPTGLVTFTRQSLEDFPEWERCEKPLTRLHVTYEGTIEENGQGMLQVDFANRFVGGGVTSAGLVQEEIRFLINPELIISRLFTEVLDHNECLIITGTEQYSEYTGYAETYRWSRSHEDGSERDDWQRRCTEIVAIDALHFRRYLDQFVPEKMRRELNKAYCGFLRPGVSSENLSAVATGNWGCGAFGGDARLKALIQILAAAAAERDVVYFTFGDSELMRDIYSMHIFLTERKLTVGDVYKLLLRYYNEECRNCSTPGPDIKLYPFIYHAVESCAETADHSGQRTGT

potency difference JA2131 (6´-thiocarbonyl) vs JA2120 (6´-carbonyl) [1]: more than 50 fold
inhibition at 0.0488281 µM ([1]; [L] 0.0488281 uM): 13.8%
inhibition at 0.0976562 µM ([1]; [L] 0.0976562 uM): 26.2%
inhibition at 0.195312 µM ([1]; [L] 0.195312 uM): 34.6%
inhibition at 0.390625 µM ([1]; [L] 0.390625 uM): 58.8%
inhibition at 0.78125 µM ([1]; [L] 0.78125 uM): 62.5%
inhibition at 1.5625 µM ([1]; [L] 1.5625 uM): 75.5%
inhibition at 3.125 µM ([1]; [L] 3.125 uM): 84.3%
inhibition at 6.25 µM ([1]; [L] 6.25 uM): 98.7%
inhibition at 12.5 µM ([1]; [L] 12.5 uM): 99.5%
inhibition at 25 µM ([1]; [L] 25 uM): 104%
inhibition at 50 µM ([1]; [L] 50 uM): 94%
IC50 ([1]; hPARG 1 nM, PARylated PARP1C 500 nM, 30 min): 0.4 µM
SMILES: Cn1c(=S)c2[nH]c(SCCN3CCOCC3)nc2n(C)c1=O [JA2131]
effect of detergent or nonspecific protein on PARG inhibition ([1]; JA2131 5, 10, 20 μM, 0.1% Triton-X 100 or 0.1 mg/ml BSA): Neither the addition of Triton-X 100 nor BSA significantly altered the inhibitory potency
viability at 72 h, 1.95 µM ([2]; +IR 7 Gy): 104%
viability at 72 h, 3.9 µM ([2]; +IR 7 Gy): 99.5%
viability at 72 h, 7.8 µM ([2]; +IR 7 Gy): 103%
viability at 72 h, 15.6 µM ([2]; +IR 7 Gy): 96.6%
viability at 72 h, 31.3 µM ([2]; +IR 7 Gy): 76.7%
viability at 72 h, 62.5 µM ([2]; +IR 7 Gy): 32.5%
viability at 72 h, 125 µM ([2]; +IR 7 Gy): 13.6%
viability at 72 h, 250 µM ([2]; +IR 7 Gy): 16.8%
viability at 72 h, 500 µM ([2]; +IR 7 Gy): 13%
viability at 72 h, 0.98 µM ([2]; +IR 7 Gy): 102%
viability at 72 h, 0.49 µM ([2]; +IR 7 Gy): 100%
viability at 72 h, 0.244 µM ([2]; +IR 7 Gy): 100%
viability at 72 h, 1.95 µM ([2]; without IR): 97.5%
viability at 72 h, 3.9 µM ([2]; without IR): 97.3%
viability at 72 h, 7.8 µM ([2]; without IR): 94.1%
viability at 72 h, 15.6 µM ([2]; without IR): 88.1%
viability at 72 h, 31.3 µM ([2]; without IR): 57.2%
viability at 72 h, 62.5 µM ([2]; without IR): 6.73%
viability at 72 h, 125 µM ([2]; without IR): 4.07%
viability at 72 h, 250 µM ([2]; without IR): 4.3%
viability at 72 h, 500 µM ([2]; without IR): 4.21%
viability at 72 h, 0.98 µM ([2]; without IR): 99.2%
viability at 72 h, 0.49 µM ([2]; without IR): 98.7%
viability at 72 h, 0.244 µM ([2]; without IR): 100%
IC50 ([3]; with 7 Gy IR): 41.6 ± 3 µM
IC50 ([3]; without IR): 33 ± 2.4 µM
